The text below walks through data of US10688093B2, “Methods, compositions, and uses of novel Fyn kinase inhibitors” (priority 2015, dated 2020).

Each structure is given as a SMILES string. pIC50: −log10 of the molar value.

In the test the target is full-length recombinant human FYN A (Homo sapiens (Human), UniProt P06241). Put plainly: ADP-Glo Kinase Assay of FYN kinase inhibition. It counts as biochemical. As to conditions: primary screen, initial compounds. In short, it runs like this: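 GST-tagged full-length FYN A (baculovirus, Sf9) at 3 pg preincubated 30 min RT with compound (10-point 3-fold series from 10 μM) in Tris pH 7.5/MgCl2 buffer. 12-mer tyrosine peptide plus 12.5 pmol ATP added, 90 min RT; ADP measured by ADP-Glo luminescence, IC50 from dose-response.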
full-length recombinant human FYN A, sequence (P06241 whole entry): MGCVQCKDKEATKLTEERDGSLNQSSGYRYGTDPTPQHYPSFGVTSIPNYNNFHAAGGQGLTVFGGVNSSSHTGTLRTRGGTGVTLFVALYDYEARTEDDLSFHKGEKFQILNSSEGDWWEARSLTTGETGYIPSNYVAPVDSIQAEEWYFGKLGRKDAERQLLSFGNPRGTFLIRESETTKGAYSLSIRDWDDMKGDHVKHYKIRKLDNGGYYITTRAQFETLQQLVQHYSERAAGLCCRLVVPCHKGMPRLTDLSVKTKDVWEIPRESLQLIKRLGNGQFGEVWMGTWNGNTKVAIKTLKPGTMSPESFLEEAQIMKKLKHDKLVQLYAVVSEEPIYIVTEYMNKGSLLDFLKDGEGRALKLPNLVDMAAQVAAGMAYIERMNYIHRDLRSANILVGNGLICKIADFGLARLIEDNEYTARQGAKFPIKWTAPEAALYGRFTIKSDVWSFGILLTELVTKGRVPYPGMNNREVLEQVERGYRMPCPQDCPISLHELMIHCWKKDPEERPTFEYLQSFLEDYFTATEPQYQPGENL
A word on the pIC50: it is the IC50 on a negative log10 scale, so that one unit is a factor of ten. Consider `COc1cncc(-c2ccc3ncc(-c4cccc(NC(C)=O)c4)n3n2)c1` [Compound 343, N-[3-[6-(5-methoxy-3-pyridyl)imidazo [1,2-b]pyridazin-3-yl]phenyl] acetamide], for which the pIC50 was 6.21.
With `COc1cncc(-c2ccc3ncc(-c4cccc(CO)c4)n3n2)c1` [Compound 344] the figure was 5.67; with `c1cc(-c2cnc3ccc(-c4ccc5c(c4)OCO5)nn23)ccn1` [Compound 345, 6-(1,3-benzodioxol-5-yl)-3-(4-pyridyl)imidazo [1,2-b]pyridazine], 6.66.
With `c1cc(-c2cnc3ccc(-c4ccoc4)nn23)ccn1` [Compound 346, 6-(3-furyl)-3-(4-pyridyl)imidazo [1,2-b]pyridazine] the figure was 5.99; with `CC(=O)Nc1cccc(-c2cnc3ccc(-c4cccc(Cl)c4)nn23)c1` [Compound 347, N-[3-[6-(3-chlorophenyl)imidazo[1,2-b]pyridazin-3-yl]phenyl] acetamide], 6.43; with `COc1cccc(-c2ccc3ncc(-c4cccc(NC(C)=O)c4)n3n2)c1` [Compound 348, N-[3-[6-(3-methoxyphenyl)imidazo[1,2-b]pyridazin-3-yl]phenyl] acetamide], 6.39.
With `OCc1cccc(-c2cnc3ccc(-c4cccc(O)c4)nn23)c1` [Compound 349, 3-[3-[3-(hydroxymethyl)phenyl]imidazo [1,2-b]pyridazin-6-yl]phenol] the figure was 6.02; with `NC(=O)c1ccc(-c2ccc3ncc(-c4ccccc4)n3n2)cc1` [Compound 350, 4-(3-phenylimidazo [1,2-b]pyridazin-6-yl)benzamide], 5.67; with `Oc1cccc(-c2ccc3ncc(-c4ccc5c(c4)OCO5)n3n2)c1` [Compound 351, 3-[3-(1,3-benzodioxol-5-yl)imidazo[1,2-b]pyridazin-6-yl]phenol], 6.04.
With `c1ccc(-c2ccc3ncc(-c4cccnc4)n3n2)cc1` [Compound 352, 6-phenyl-3-(3-pyridyl)imidazo [1,2-b]pyridazine], the pIC50 is 5.71.
As to `c1cncc(-c2cnc3ccc(-c4cccs4)nn23)c1` [Compound 353, 3-(3-pyridyl)-6-(2-thienyl) imidazo[1,2-b] pyridazine], the pIC50 was 6.46.
Turning to `CC(=O)Nc1cccc(-c2cnc3ccc(-c4cccc(C(C)=O)c4)nn23)c1` [Compound 354, N-[3-[6-(3-acetylphenyl)imidazo[1,2-b]pyridazin-3-yl]phenyl] acetamide], the pIC50 is 6.33.
To `COc1cccc(-c2ccc3ncc(-c4cccc(O)c4)n3n2)c1` [Compound 355, 3-[6-(3-methoxyphenyl)imidazo[1,2-b]pyridazin-3-yl]phenol] belongs 5.91.
With `COc1cc(-c2cnc3ccc(-c4ccc(OC)c(OC)c4)nn23)ccc1O` [Compound 356, 4-[6-(3,4-dimethoxyphenyl)imidazo[1,2-b]pyridazin-3-yl]-2-methoxy-phenol], the negative-log IC50 (pIC50) is 7.35.
Take `COc1ccccc1-c1ccc2ncc(-c3cccc(C(C)=O)c3)n2n1` [Compound 357, 1-[3-[6-(2-methoxyphenyl)imidazo[1,2-b]pyridazin-3-yl]phenyl] ethanone]: the pIC50 was 5.63.
To `CC(=O)c1cccc(-c2cnc3ccc(-c4cnn(C)c4)nn23)c1` [Compound 358, 1-[3-[6-(1-methylpyrazol-4-yl)imidazo[1,2-3]pyridazin-3-yl]phenyl] ethanone] belongs 6.43; to `CS(=O)(=O)Nc1cccc(-c2ccc3ncc(-c4cccs4)n3n2)c1` [Compound 359, N-[3-[3-(2-thienyl)imidazo [1,2-b]pyridazin-6-yl]phenyl] methane-sulfonamide], 5.92; to `c1cncc(-c2ccc3ncc(-c4ccc5c(c4)OCO5)n3n2)c1` [Compound 360, 3-(1,3-benzodioxol-5-yl)-6-(3-pyridyl)imidazo [1,2-b]pyridazine], 6.16.
Turning to `OCc1ccc(-c2ccc3ncc(-c4cccnc4)n3n2)cc1` [Compound 361, [4-[3-(3-pyridyl)imidazo [1,2-b]pyridazin-6-yl]phenyl] methanol], the pIC50 is 5.54.
In the case of `OCc1ccc(-c2ccc3ncc(-c4cccc(O)c4)n3n2)cc1` [Compound 363, 3-[6-[4-(hydroxymethyl)phenyl]imidazo [1,2-b]pyridazin-3-yl]phenol], the pIC50 was 6.54.
To `COc1ccccc1-c1ccc2ncc(-c3ccc(CO)cc3)n2n1` [Compound 364] belongs 5.41; to `COc1cccc(-c2ccc3ncc(-c4ccc(CO)cc4)n3n2)c1` [Compound 365, [4-[6-(3-methoxyphenyl)imidazo[1,2-b]pyridazin-3-yl]phenyl] methanol], 5.81.
`COc1cccc(-c2ccc3ncc(-c4ccc(O)c(OC)c4)n3n2)c1` [Compound 366, 2-methoxy-4-[6-(3-methoxyphenyl)imidazo[1,2-b]pyridazin-3-yl]phenol]: the pIC50 is 6.66.
With `CC(=O)c1cccc(-c2cnc3ccc(-c4ccoc4)nn23)c1` [Compound 367, 1-[3-[6-(3-furyl)imidazo [1,2-b]pyridazin-3-yl]phenyl] ethanone] the figure was 5.46; with `NC(=O)c1ccc(-c2ccc3ncc(-c4cccs4)n3n2)cc1` [Compound 368, 4-[3-(2-thienyl)imidazo [1,2-b]pyridazin-6-yl]benzamide], 6.02.
With `O=C(NCCO)c1cccc(-c2ccc3ncc(-c4ccc5c(c4)OCO5)n3n2)c1` [Compound 369, 3-[3-(1,3-benzodioxol-5-yl)imidazo[1,2-b]pyridazin-6-yl]-N-(2-hydroxyethyl) benzamide] the figure was 6.43; with `OCc1cccc(-c2ccc3ncc(-c4ccc5c(c4)OCO5)n3n2)c1` [Compound 370, [3-[3-(1,3-benzodioxol-5-yl)imidazo[1,2-b]pyridazin-6-yl]phenyl] methanol], 6.48; with `CC(=O)Nc1cccc(-c2cnc3ccc(-c4cccs4)nn23)c1` [Compound 371, N-[3-[6-(2-thienyl)imidazo [1,2-b]pyridazin-3-yl]phenyl] acetamide], 6.68.
To `Oc1cccc(-c2cnc3ccc(-c4ccccc4)nn23)c1` [Compound 372, 3-(6-phenylimidazo [1,2-b]pyridazin-3-yl)phenol] belongs 6.05; to `CC(=O)c1cccc(-c2ccc3ncc(-c4cccc(O)c4)n3n2)c1` [Compound 373, 1-[3-[3-(3-hydroxyphenyl)imidazo[1,2-b]pyridazin-6-yl]phenyl] ethanone], 5.80; to `OCc1ccc(-c2cnc3ccc(-c4cccc(F)c4)nn23)cc1` [Compound 374, [4-[6-(3-fluorophenyl)imidazo[1,2-b]pyridazin-3-yl]phenyl] methanol], 5.53.
Turning to `CC(=O)c1cccc(-c2ccc3ncc(-c4cccc(CO)c4)n3n2)c1` [Compound 375, 1-[3-[3-[3-(hydroxymethyl)phenyl]imidazo [1,2-b]pyridazin-6-yl]phenyl] ethanone], the pIC50 is 5.66.
To `CC(=O)c1cccc(-c2cnc3ccc(-c4cccc(N(C)C)c4)nn23)c1` [Compound 376, 1-[3-[6-[3-(dimethylamino)phenyl]imidazo [1,2-b]pyridazin-3-yl]phenyl] ethanone] belongs 6.05.
